# Test results published in ChEMBL document CHEMBL1649359, “Izumiphenazines A-C: isolation and structure elucidation of phenazine derivatives from Streptomyces sp. IFM 11204” (2010).
# Key:
# Type in all cases: functional
# AGS [1] = test: Induction of apoptosis in TRAIL-resistant human AGS cells assessed as decrease in cell viability at 40 uM after 24 hrs by fluorometric microculture cytotoxic assay in presence of TRAIL relative to in absence of TRAIL
# AGS [2] = test: Induction of apoptosis in TRAIL-resistant human AGS cells assessed as decrease in cell viability at 20 uM after 24 hrs by fluorometric microculture cytotoxic assay in presence of TRAIL relative to in absence of TRAIL
# AGS [3] = test: Induction of apoptosis in TRAIL-resistant human AGS cells assessed as decrease in cell viability at 30 uM after 24 hrs by fluorometric microculture cytotoxic assay in presence of TRAIL relative to in absence of TRAIL
structure (smiles),measurement,setting,value
O=C(O)c1cc2c(c3nc4c(O)cccc4nc13)[C@@H]1Cc3nc4cccc(O)c4nc3[C@@H](O)[C@@H]1O2 [IZUMIPHENAZINE A],Activity,AGS [1],78%
CN(c1ccc(C(=O)O)cc1)c1cccc2nc3c(O)cccc3nc12 [IZUMIPHENAZINE C],Activity,AGS [2],26%
O=C1C[C@H](c2c(O)cc(C(=O)O)c3nc4cccc(O)c4nc23)Cc2nc3cccc(O)c3nc21 [IZUMIPHENAZINE B],Activity,AGS [3],30%
